Experimental data published in article PMC8273887 (Journal of Medicinal Chemistry, 2021).
“Also recorded” adds a separate entry of the source. Bridge positions count the residues as written; N and C are the ends. Ends that are not written are not given here.

Legend:
[1] = Stability in simulated gastric fluid (SGF); format: in vitro ADME, porcine; details: SGF with pepsin, pH 1.3, 37 °C, 24 h; RP-HPLC and MS
Experimental: (§1) We exposed TFF3(C^57Acm) and TFF3 homodimer to simulated gastric fluid (SGF, containing pepsin, pH 1.3) and simulated intestinal fluid (SIF, containing pancreatic enzymes, pH 6.8), and monitored the mixture over 24 h by analytical RP-HPLC and MS. The N- and C-termini of TFF3 and its homodimer were readily truncated in both SGF and SIF (Figure 4A,B). In SGF, TFF3 was cleaved at Leu^6/Ser^7 followed by cleavage at Glu^54/Ala^55 (t1/2 < 5 min). In SIF, TFF3 was cleaved first at Thr^58/Phe^59 followed by cleavage at Leu^6/Ser^7, Glu^56/Cys^57, and Ala^55/Glu^56 (t1/2 < 5 min). TFF3 homodimer, in both SGF (t1/2 ∼ 40 min) and SIF (t1/2 < 5 min), was first broken down to monomeric TFF3 through simultaneous cleavage at Leu^6 and Glu^54 or Ala^55, eventually leading to the same metabolites as TFF3 (Figure 4B).
(§2) Simulated gastric fluid (SGF) was prepared by dissolving 20 mg of NaCl and 8 mg of pepsin in 70 μL of concentrated HCl (32%), and the volume was diluted to 10 mL with Milli-Q water (pH 1.3).[76],[77] Simulated intestinal fluid (SIF) was prepared by dissolving 68 mg of KH2PO4 in 500 μL of Milli-Q water followed by the addition of 800 μL of 0.2 M NaOH and 100 mg of porcine pancreatin, and the volume was adjusted to 10 mL with Milli-Q water (pH 6.8).[76],[77] Peptide stock solution (1 mM; 15 μL) was added to SGF (285 μL) or SIF (285 μL) and incubated at 37 °C. Samples (30 μL) from SGF and SIF were taken at 0, 5, 15, and 30 min and 1, 2, 4, 8, and 24 h timepoints and subsequently quenched with 30 μL of 0.2 M Na2CO3 (SGF) or 30 μL of 5% aqueous TFA (SIF). The samples were analyzed by analytical RP-HPLC (30 μL) and/or LC-MS (20 μL). The amount of peptide remaining was determined by measuring the peak area and expressing it as a % of the peak area at time 0. Peptide half-life (t1/2) was determined from the peptide degradation profiles using an exponential one-phase decay fit in Prism (version 7, GraphPad, La Jolla). LC-MS analysis was performed in a Q-Star Pulsar mass spectrometer (SCIEX, Ontario, Canada), and the raw data spectra were processed using the peptide reconstruction tool in the BioAnalyst software to identify the mass of the metabolites. The stability of the disulfide bonds was assessed through incubation of the peptides (10 μM) with 10 equiv of reduced glutathione (GSH; 100 μM) in sodium phosphate (50 mM) buffer at pH 7.2. Samples were taken at timepoints 0, 4, 8, and 24 h, quenched by adding 10% TFA, and analyzed by analytical RP-HPLC using an analytical C3 column (Agilent Zorbax SB-C3, 5 μm, 2.1 mm × 250 mm, 300 Å).

[2] = Stability in simulated intestinal fluid (SIF); format: in vitro ADME; details: pig, simulated intestinal fluid (SIF) with porcine pancreatin, pH 6.8, 15 μL of 1 mM peptide stock in 285 μL SIF, 37 °C, samples 0 min-24 h quenched with 5% aqueous TFA, RP-HPLC/LC-MS peak area as % of time 0, exponential one-phase decay fit, read-out: t1/2 in SIF
Experimental: as §1, §2

trypsin = details: incubated with trypsin; fragments identified
Source text: We then synthesized the trefoil domain (TFF3_10-50, single-chain assembly via Fmoc-SPPS) to investigate its gut stability. We acetylated the N-terminus (Gln^10) of the trefoil domain to prevent the formation of pyroglutamic acid.

human saliva = details: cited from earlier work
pepsin = test: simulated gastric fluid (SGF, containing pepsin, pH 1.3); details: porcine, 37 °C, up to 24 h
porcine pancreatin = test: simulated intestinal fluid (SIF, containing pancreatic enzymes, pH 6.8); details: 37 °C, up to 24 h
[3] = Stability of disulfide bonds with reduced glutathione (GSH); format: physicochemical; details: peptide 10 μM, 10 equiv reduced glutathione (100 μM), 50 mM sodium phosphate buffer pH 7.2; timepoints 0, 4, 8, 24 h; analytical C3 RP-HPLC
Source text: In certain physiological environments, disulfide bonds are prone to scrambling or reductive cleavage, thereby affecting peptide integrity.[67] Thus, we also evaluated the stability of the disulfide bonds of TFF3 in the presence of 10 equivalents of reduced glutathione (GSH) at pH 7 by time-course analytical RP-HPLC. […] While this was expected for the relatively buried disulfide bonds within the trefoil domain (TFF3_10-50), it highlights that also the disulfide bond outside of the trefoil domain is well protected.
Simulated gastric fluid (SGF) was prepared by dissolving 20 mg of NaCl and 8 mg of pepsin in 70 μL of concentrated HCl (32%), and the volume was diluted to 10 mL with Milli-Q water (pH 1.3).[76],[77] […] The samples were analyzed by analytical RP-HPLC (30 μL) and/or LC-MS (20 μL). The amount of peptide remaining was determined by measuring the peak area and expressing it as a % of the peak area at time 0. Peptide half-life (t1/2) was determined from the peptide degradation profiles using an exponential one-phase decay fit in Prism (version 7, GraphPad, La Jolla). […] The stability of the disulfide bonds was assessed through incubation of the peptides (10 μM) with 10 equiv of reduced glutathione (GSH; 100 μM) in sodium phosphate (50 mM) buffer at pH 7.2. […]

CXCR4 = molecular target: T1, CXCR4 (Homo sapiens, UniProt P61073); test: Inositol 1 phosphate (IP1) accumulation assay (HTRF) in COS-7 cells transfected with CXCR4; format: cell-based; details: 5 min preincubation with peptide (1 or 10 μM final), then CXCL12 10^-12 to 10^-5 M; COS-7/CXCR4; IP1 HTRF
T1 construct: expressed in transfected cells; host or cells: COS-7 (African green monkey), transient co-transfection with GαΔ6qi4myr
T1 sequence (P61073 whole entry): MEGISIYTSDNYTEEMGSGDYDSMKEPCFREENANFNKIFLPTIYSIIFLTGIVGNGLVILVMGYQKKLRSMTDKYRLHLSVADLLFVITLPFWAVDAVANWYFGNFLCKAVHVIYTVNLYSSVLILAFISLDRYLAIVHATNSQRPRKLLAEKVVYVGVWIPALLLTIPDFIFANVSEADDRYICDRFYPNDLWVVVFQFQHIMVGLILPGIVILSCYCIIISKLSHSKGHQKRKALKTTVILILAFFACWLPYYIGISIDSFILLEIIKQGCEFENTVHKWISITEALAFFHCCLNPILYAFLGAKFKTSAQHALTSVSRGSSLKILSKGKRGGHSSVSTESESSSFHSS
Source text: CXCR4 is a member of the G protein-coupled receptor (GPCR) family[58] and proposed as a target receptor for TFF3 to mediate wound healing.[30],[39] We therefore pharmacologically characterized TFF3(C^57Acm) and TFF3 homodimer at CXCR4. We used a chimeric Gαiq protein to switch the pathway to the Gαq signaling, which leads to the activation of the phospholipase and allows measurement of CXCR4 activation through the production of inositol 1 phosphate (IP1).[61]−[63] We measured IP1 accumulation upon stimulation with TFF3(C^57Acm) and TFF3 homodimer in fibroblast-like COS-7 cells transiently transfected with CXCR4.[58] This is a competitive immunoassay, based on the HTRF technology, where native IP1 produced by cells compete with labeled IP1 (acceptor) for binding to anti-IP1-cryptate (donor). The specific signal (i.e., Förster resonance energy transfer, FRET) is inversely proportional to the concentration of IP1 in the sample. The calculation of the fluorescence ratio eliminates possible medium interferences.[64]
COS-7 cells (fibroblast-like cells from African green monkey) were transiently co-transfected with the CXCR4 C-terminally fused to eYFP in pVitro2 vector and the untagged chimeric G protein GαΔ6qi4myr in pcDNA3.1 plasmid using Metafectene Pro according to manufacturer’s protocol. The cells were cultured in DMEM with higher glucose and supplemented with 10% FCS without any antibiotics at 37 °C and 5% CO2 in 95% humidity. Cisbio IP-One Gq assay kit was used according to previous description with minor modifications to measure activity.[80] Briefly, a standard curve was prepared in HBSS (Hanks’ balanced salt solution) with 20 mM LiCl to determine the linear range of the assay and 10 000 cells/well were cultured overnight in a 384-well flat white plate (Greiner Bio-one GmbH, Frickenhausen, Germany). TFF3 and its homodimer as well as CXCL12 were diluted in HBSS containing 20 mM LiCl. Stimulation was carried out for 1 h in triplicate at 37 °C. Subsequently, 3 μL of IP1-d2 and 3 μL of Ab-cryptate in lysis buffer were added to the wells and incubated on a tumbler for 60 min at 25 °C. Fluorescence was then measured at 620 and 665 nm and the HTRF (homogeneous time-resolved fluorescence) ratio (665/620 nm) was calculated. Data analysis was performed with Prism (version 7, GraphPad, La Jolla). Tested compounds were normalized to CXCL12 wild type, with the highest HTRF ratio set to 0% and the lowest HTRF ratio set to 100% response. […] The final concentration range of 10^–12 to 10^–5 M to CXCL12 and 1 or 10 μM to TFF3(C^57Acm) and TFF3 homodimer was achieved by adding the compounds from a threefold concentrated stock solution.

For “Ac-QCAVPAKDRVDCGYPHVTPKECNNRGCCFDSRIPGVPWCFK-NH2 (disulfide 2-28, 12-27, 22-39) [TFF3_10-50]”, the “stability in SGF over 24 h (in words)” value [1] was “stable”, the half-life at 50 μM [2] was under 30 min and the “cleavage sites on incubation with trypsin” value (trypsin) was “cleavages at Lys^16, Arg^18, and Arg^41”.
For “EEYVGLSANQCAVPAKDRVDCGYPHVTPKECNNRGCCFDSRIPGVPWCFKPLQEAECTF”, the cleaved bond (human saliva) is listed as “Thr58-Phe59”, the cleaved bond (pepsin) is listed as “Leu6-Ser7, first_seen; also recorded: Glu54-Ala55, first_seen; also recorded: Ala55-Glu56, first_seen” and the cleaved bond (porcine pancreatin) is listed as “Leu6-Ser7, first_seen”. The fragment found (porcine pancreatin) was “S^7ANQCAVPAKDRVDCGYPHVTPKECNNRGCCFDSRIPGVPWCFKPLQEAE^56”.
For “TFF3: 59-residue trefoil factor 3 peptide, three intrachain disulfide bonds, free Cys^57; chemically synthesized by native chemical ligation (EEYVGLSANQCAVPAKDRVDCGYPHVTPKECNNRGCCFDSRIPGVPWCFKPLQEAECTF; disulfide 11-37, 21-36, 31-48)”, the “disulfide bond reduction or scrambling in presence of GSH” value [3] was “No disulfide bond reduction or scrambling was observed” and the “effect on the EC50 of CXCL12 at CXCR4 (antagonism)” value (CXCR4) was “not affected”.
